# Test results from patent publication US8809368B2, “Compounds affecting gap junction activity” (Kansas State University Research Foundation, priority 2006, dated 2014).
# How the values were obtained:
# [1] = tested on: T47D breast cancer cells; assay: Xenograft tumor growth of T47D cells in Nu/Nu mice; type: in vivo
# Experimental: Mice were inoculated with 17β-estradiol (1.7 mg/pellet) before the injection of 1×10^7 T47D cells subcutaneously into the inguinal region of mammary fat pad. Animals received treatment at 1 μM PQ1 or 10 μM tamoxifen. The results after 6 days of injection show a decrease in tumor growth of PQ1-treated animals compared to control or tamoxifen.
# The anti-tumor effect of PQ1 was also observed in animal model. Nu/Nu mice were inoculated with estradiol-17β (1.7 mg/pellet) before the injection of 1×10^7 T47D breast cancer cells subcutaneously into inguinal region of mammary fat pad.
# Xenograft Tumors of T47D cells in Nu/Nu Mice. Nu/Nu mice were ordered from The Jackson Laboratory. Mice were inoculated with estradiol-17β (1.7 mg/pellet) before the injection of 1×10^7 T47D breast cancer cells subcutaneously into inguinal region of mammary fat pad. Cell viability of T47D cells were performed prior to injection. The tumor size was measured in three dimensions with calipers every 2 days starting at Day 7. […] When tumors reached 30-50 mm^3, three animals were randomly assigned to each treatment group. Animals were injected with 1 μM of PQ1 or 10 μM of tamoxifen and a single injection of treatment was set for 7 days and daily measurement of tumor size was recorded.
# [2] = tested on: MEC; assay: Soft agar colony growth, MEC; type: cell-based, human; details: 100 nM
# Experimental: Various oncogenes (e.g. ras, raf, neu, src, mos) down-regulate GJIC while several tumor suppressor genes can up-regulate GJIC. […] Cells were grown in soft agar to assess their capacity for anchorage-independent growth, which is a key feature of cell transformation due to the importance of cell-cell and cell-matrix based tumor suppression. MEC and T47D cells were treated with 10, 100, 1000, and 10000 nM PQ1 for 7 days. A graphical presentation of three experiment results is presented in log scale of PQ1 concentration. […] A 100 nM PQ1 inhibits 66% of colony growth compared to controls, without PQ1 treatment or 100 nM succinic acid.
# Colony Growth Using Soft Agar. Cells were treated with 0, 10, 100, 200 and 500 nM PQ1 for 7 days. Base agar plates were prepared containing 0.8% agar and 0.4% agar in Ham's F12. Cells (5×10^4 cells/33 mm^2 well) were suspended in 100 μl of Ham's F12 with 0.4% agar and plated. These plates were maintained at 37° C. for 7 days and examined for the presence of colonies. Individual colonies of 50 μm or greater were examined.
# [3] = tested on: T47D cells; assay: Scrape load/dye transfer (SL/DT) GJIC assay, T47D cells; type: cell-based, human
# Experimental: In the experiments for FIG. 9, T47D cells were dosed with 100, 200 and 400 nM of PQ1 for 40 minutes. Lucifer yellow, a gap junctional permeable dye, was used to measure the GJIC. Rhodamine dextran was used as a control. The dotted line in FIG. 9 indicates the line of cut. This increase could be due to the interaction between the PQ1 and the connexin proteins which leads to the opening of the gap junction channel. PQ1 exerted no effect on the cell morphology of T47D cells (data not shown).
# Scrape load dye transfer technique (SL/DT): Lucifer yellow is an intensely fluorescent […] dye having low molecular weight (Mr 457.2) and passes from one cell to another through gap junctions only. Rhodamine dextran is a high molecular weight polymer (Mr 10,000) used as a control as passes only through injured plasma membrane. Cells were grown to 90% confluency on cover slips, dosed with PQ 1 for 40 minutes. The 2.5 μl of 1% (w/v) Lucifer yellow and 0.75% (w/v) of Rhodamine dextran was mixed and added in the center of the coverslip. Two cuts crossing each other in the center of the coverslip were made. After three minutes, cells were washed with PBS and incubated at 37° C. in tissue culture media for 20 minutes. Cells were fixed and mounted on a slide, sealed and visualized under a fluorescence microscope at 10× objective.
# Intercellular communication in many organs is maintained via GJIC. Several GJIC enhancers have been reported; however, an effective clinical drug targeting gap junction is not available at this time. The effect of PQ1 on the GJIC activity in T47D breast cancer cells was tested. […] Conversely, PQ1 has no effect on GJIC activity of human primary epithelial cells (MEC, normal cells) compared to its controls (data not shown). The distance of dye transfer from section cut to the farthest cells with dye was measured. […] MECs have uniform uptake of Lucifer yellow. This is due to the existing high level of gap junction activity of these normal cells.
# Gap Junction Activity. […] Cells were mounted on a slide, sealed and visualized under a fluorescence microscope at 10× objective.
compound,measurement,setting,value
"COc1cc(NCCCN)c2nccc(C)c2c1Oc1cccc(C(F)(F)F)c1.O=C(O)CCC(=O)O [PQ1, 6-Methoxy-8-[(3-aminopropyl)amino]-4-methyl-5-(3-trifluoromethylphenyloxy) quinoline succinic acid]",tumor size compared to control,"[1]; Day 2, 1 μM PQ1, single injection",decrease
same,decrease of tumor growth,"[1]; Day 6 after one injection, 1 μM PQ1, compared to control",70%
same,tumor growth compared to control or tamoxifen,"[1]; after 6 days of injection, 1 μM PQ1",decrease
same,colony growth,[2],no effect
same,increase in distance of dye transfer,"[3]; 200 nM, compared to control",8.5 fold
same,gap junction activity (SL/DT) compared to controls,"[3]; 100, 200 and 500 nM",significant increase
same,gap junctional activity (SL/DT),[3]; 200 and 500 nM for 40 minutes,significant increase
